# Reference: patent US20110015181A1, “ALKYLAMINOPYRIDINE DERIVATIVE” (priority 2008, published 2011)
# What was measured:
# human NPY Y1 receptor = biological target: T1, human NPY Y1 receptor (Homo sapiens, UniProt P25929); assay: NPY binding inhibition test ([125I] peptide YY binding to membranes of NPY Y1 receptor expression cells); details: membrane of CHO-K1 cells expressing human NPY Y1 receptor, 25° C., 2 hours; read-out: IC50 against specific [125I] peptide YY binding
# T1 construct: expressed in transfected cells; host or cells: CHO-K1 NFAT β-Lactamase (Aurora)
# T1 sequence (P25929 1-384): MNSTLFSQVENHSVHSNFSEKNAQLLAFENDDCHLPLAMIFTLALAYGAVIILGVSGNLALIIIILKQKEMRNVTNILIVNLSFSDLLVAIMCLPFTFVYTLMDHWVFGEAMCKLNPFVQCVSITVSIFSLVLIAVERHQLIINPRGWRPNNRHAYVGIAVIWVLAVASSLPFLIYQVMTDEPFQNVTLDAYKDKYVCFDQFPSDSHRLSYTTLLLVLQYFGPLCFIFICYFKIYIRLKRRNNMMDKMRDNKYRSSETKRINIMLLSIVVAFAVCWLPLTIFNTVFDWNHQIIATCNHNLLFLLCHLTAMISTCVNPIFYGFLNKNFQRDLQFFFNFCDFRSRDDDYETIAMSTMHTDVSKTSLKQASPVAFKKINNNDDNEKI
# Description: A cDNA sequence encoding a human NPY Y1 receptor [Accession No. L07615] was cloned into expression vectors pEF1x (made by Invitrogen Inc.). The obtained expression vectors were transfected to host cells CHO-K1 NFAT β-Lactamase (Aurora) by cationic lipid method [see Proceedings of the National Academy of Sciences of the United States of America, 84: 7413 (1987)] to give NPY Y1 receptor expression cells.
# A membrane sample prepared from the cells which expressed the NPY Yl receptor was incubated together with a test compound and [^125I] peptide YY (manufactured by Amersham) (20,000 cpm) in an assay buffer (HBSS buffer (pH 7.4) containing 20 mM HEPES, 0.5% BSA, 1 mM phenylmethylsulfonylfluoride and 0.1% bacitracin) at 25° C. for 2 hours, then filtered through a glass filter GF/C, and washed with 20 mM HEPES buffer (pH 7.4), followed by measuring the radioactivity of the cake on the glass filter with γ counter. Nonspecific binding was measured in the presence of 1 μM peptide YY and a 50% Inhibitory Concentration (IC50) of the test compound against specific [^125I] peptide YY binding was determined [Endocrinology, 131: 2090 (1992)].
# human ERG (hERG) = human ERG (hERG) (Homo sapiens, UniProt Q12809); assay: Affinity for human ERG (hERG); format: binding
# Description: In addition, the affinities of compounds according to the present invention and compounds described in Patent Document 7 described above for human ERG (hERG) were examined. This examination method was carried out according to the method described in documents (for example, Japanese Unexamined Patent Application Publication No. 2004-512268).
# [1] = compounds according to the present invention
# [2] = compounds described in Patent Document 7 (WO 97/34873)
# human ERG (hERG), sequence (Q12809 whole entry): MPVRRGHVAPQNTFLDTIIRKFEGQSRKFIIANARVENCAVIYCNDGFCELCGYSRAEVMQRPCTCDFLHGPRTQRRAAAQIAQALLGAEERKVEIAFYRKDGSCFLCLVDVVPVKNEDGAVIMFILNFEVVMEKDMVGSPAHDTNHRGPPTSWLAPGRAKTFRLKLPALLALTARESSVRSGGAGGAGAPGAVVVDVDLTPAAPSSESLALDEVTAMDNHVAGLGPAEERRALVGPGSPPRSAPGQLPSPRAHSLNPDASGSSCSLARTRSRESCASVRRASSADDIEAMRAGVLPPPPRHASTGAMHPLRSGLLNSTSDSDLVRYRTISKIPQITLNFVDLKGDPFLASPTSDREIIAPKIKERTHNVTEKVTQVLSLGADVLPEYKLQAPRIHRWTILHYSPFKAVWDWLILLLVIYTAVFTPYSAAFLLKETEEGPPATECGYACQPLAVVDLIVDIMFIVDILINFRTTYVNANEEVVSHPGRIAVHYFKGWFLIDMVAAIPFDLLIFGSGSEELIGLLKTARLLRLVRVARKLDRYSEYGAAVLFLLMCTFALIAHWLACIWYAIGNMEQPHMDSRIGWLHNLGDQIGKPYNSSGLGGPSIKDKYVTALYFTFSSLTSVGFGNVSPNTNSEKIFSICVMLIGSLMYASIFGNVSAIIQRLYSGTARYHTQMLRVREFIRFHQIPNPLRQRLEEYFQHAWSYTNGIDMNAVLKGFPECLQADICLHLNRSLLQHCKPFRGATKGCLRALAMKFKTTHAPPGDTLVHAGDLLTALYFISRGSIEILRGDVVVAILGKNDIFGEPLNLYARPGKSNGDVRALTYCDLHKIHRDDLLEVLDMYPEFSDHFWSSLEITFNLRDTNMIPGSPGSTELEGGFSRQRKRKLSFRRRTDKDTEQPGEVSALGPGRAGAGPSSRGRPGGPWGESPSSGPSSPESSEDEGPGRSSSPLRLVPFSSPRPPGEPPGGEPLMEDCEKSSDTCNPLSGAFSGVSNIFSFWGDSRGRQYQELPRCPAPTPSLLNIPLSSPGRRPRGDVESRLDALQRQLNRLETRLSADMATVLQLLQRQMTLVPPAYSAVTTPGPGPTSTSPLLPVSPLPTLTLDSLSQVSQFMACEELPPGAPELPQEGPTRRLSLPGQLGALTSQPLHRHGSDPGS
SMILES,IC50 (human NPY Y1 receptor) [nM],Activity for Human ERG (human ERG (hERG); [1]) [µM],Activity for Human ERG (human ERG (hERG); [2]) [µM]
"CCc1oc(CC(O)c2cc(N3C4CCC3COC4)cc(NCC(F)(F)F)n2)nc1C (single isomer, unassigned) [Example 21]",26,14,
Cc1nc(SCc2cc(N3C4CCC3COC4)cc(NCC#N)n2)sc1C [Example 1],16,33,
"Cc1nc(SCc2cc(N3CCSCC3)cc(NCC#N)n2)n(C)c1C [Example 34, [(4-(4-thiomorpholinyl)-6-{[(1,4,5-trimethyl-1H-imidazol-2-yl)thio]methyl}-2-pyridinyl)amino]acetonitrile]",6.5,7.3,
"COC(=O)CNc1cc(N2C3CCC2COC3)cc(CSc2nc(C)c(C)s2)n1 [Example 38, {[6-{[(4,5-dimethyl-1,3-thiazol-2-yl)thio]methyl}-4-(3-oxa-8-azabicyclo[3,2,1]octo-8-yl)-2-pyridinyl]amino}acetic acid methyl ester]",2.8,7.4,
CCc1nnc(SCc2cc(N3CCOCC3)cc(NCc3cccc(NC(C)=O)c3)n2)s1 [reference compound],,,0.57
CCc1nnc(SCc2cc(N3CCOCC3)cc(NCc3cccc(O)c3)n2)s1 [reference compound],,,0.16
CCc1nnc(SCc2cc(N3CCOCC3)cc(NCc3cccc(OC)c3)n2)s1 [reference compound],,,0.028

# Further lines, with some results ahead:
IC50 (human NPY Y1 receptor) [nM],SMILES,Activity for Human ERG (human ERG (hERG); [1]) [µM],Activity for Human ERG (human ERG (hERG); [2]) [µM]
17,"Cc1nc(SCc2cc(N3CCC(F)(F)CC3)cc(NCC(F)(F)F)n2)nn1C [Example 5, 4-(4,4-difluoro-1-piperidinyl)-6-{[(1,5-dimethyl-1H-1,2,4-triazol-3-yl)thio]methyl}-N-(2,2,2-trifluoroethyl)-2-pyridinamine]",16,
2.2,"Cc1cc(SCc2cc(N3CCC(F)(F)CC3)cc(NCC(F)(F)F)n2)nn1C [Example 9, 4-(4,4-difluoro-1-piperidinyl)-6-{[(1,5-dimethyl-1H-pyrazol-3-yl)thio]methyl}-N-(2,2,2-trifluoroethyl)-2-pyridinamine]",5.3,
27.5,O=S1(=O)CCN(c2cc(CSc3nc4c(o3)CCCC4)nc(NCC(F)(F)F)c2)CC1 [Example 12],14,
44,"Cc1nc(SCc2cc(N3CCCCCC3)cc(NCC(F)(F)F)n2)cn1C [Example 13, 4-(1-azepanyl)-6-{[(1,2-dimethyl-1H-imidazol-4-yl)thio]methyl}-N-(2,2,2-trifluoroethyl)-2-pyridinamine]",8.2,
10,"Cc1cc(CCc2cc(N3CCC(F)(F)CC3)cc(NCC#N)n2)nn1C [Example 32, ({4-(4,4-difluoro-1-piperidinyl)-6-[2-(1,5-dimethyl-1H-pyrazol-3-yl)ethyl]-2-pyridinyl}amino)acetonitrile]",11,
16,"Cc1nc(SCc2cc(N3CCC(F)(F)CC3)cc(NCCS(C)(=O)=O)n2)oc1C [Example 48, 4-(4,4-difluoro-1-piperidinyl)-6-{[(4,5-dimethyl-1,3-oxazol-2-yl)thio]methyl}-N-[2-(methylsulfonyl)ethyl]-2-pyridinamine]",5.9,
